The record followed here is patent US20160158200A1, “Combinations of Hepatitis C Virus Inhibitors” (priority 2013, published 2016).

In the assay the test system is HCV genotype-1a variant with glutamine 30 changed to glutamate in the NS5A protein. It counts as cell-based. As to conditions: test compound titrated with BMS-790052 fixed at 200 nM; genotype 1a Q30E replicon. In short, it runs like this:
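Synergy was assessed by combining several fixed amounts of an NS5A-targeting compound with a titration of the second compound of interest.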
Background: Replicon systems follow genome replication, usually without infectious particles.

SMILES strings stand for the structures. A value given as a limit tells only on which side of the number the result lay.

In the case of `CC(C)(C)C(NC(=O)C1CCC(O)CC1)c1nc(-c2ccc(-c3ccc(-c4c[nH]c(C(NC(=O)C5CCC(O)CC5)C(C)(C)C)n4)cc3)cc2)c[nH]1` (centres unmarked) [Compound W-134], the “Fold-Synergistic 1a (Q30E)” value is reported as over 100 fold. Take `CC(C)(C(=O)N[C@H](c1nc(-c2ccc(-c3ccc(-c4c[nH]c([C@@H](NC(=O)C(C)(C)C(=O)N5CCOCC5)C(C)(C)C)n4)cc3)cc2)c[nH]1)C(C)(C)C)C(=O)N1CCOCC1` [Compound W-135]: the “Fold-Synergistic 1a (Q30E)” value is recorded as over 10 fold. For `CC(C)(Br)C(=O)N[C@H](c1nc(-c2ccc(-c3ccc(-c4c[nH]c([C@@H](NC(=O)C(C)(C)Br)C(C)(C)C)n4)cc3)cc2)c[nH]1)C(C)(C)C` [Compound W-149] the value was over 100 fold. For `CC(C)(C)[C@H](NC(=O)C(C)(C)n1cnc(C(F)(F)F)c1)c1nc(-c2ccc(-c3ccc(-c4c[nH]c([C@@H](NC(=O)C(C)(C)n5cnc(C(F)(F)F)c5)C(C)(C)C)n4)cc3)cc2)c[nH]1` [Compound W-150] the value was over 100 fold; for `CC(C)[C@H](NC(=O)C(C)(C)N1C[C@@H](C)O[C@@H](C)C1)c1nc(-c2ccc(-c3ccc(-c4c[nH]c([C@@H](NC(=O)C(C)(C)N5C[C@@H](C)O[C@@H](C)C5)C(C)C)n4)cc3)cc2)c[nH]1` [Compound W-161], over 100 fold.

On to `CC(C)(C)[C@H](NC(=O)C1CC(=O)C1)c1nc(-c2ccc(-c3ccc(-c4c[nH]c([C@@H](NC(=O)C5CC(=O)C5)C(C)(C)C)n4)cc3)cc2)c[nH]1` [Compound W-171], for which the “Fold-Synergistic 1a (Q30E)” value is reported as over 100 fold.

Regarding `CC(C)[C@H](NC(=O)C1CC(=O)C1)c1nc(-c2ccc(-c3ccc(-c4c[nH]c([C@@H](NC(=O)C5CC(=O)C5)C(C)C)n4)cc3)cc2)c[nH]1` [Compound W-172], the “Fold-Synergistic 1a (Q30E)” value is recorded as over 10 fold. For `CC(C)(C)[C@H](NC(=O)C1CCC(=O)CC1)c1nc(-c2ccc(-c3ccc(-c4c[nH]c([C@@H](NC(=O)C5CCC(=O)CC5)C(C)(C)C)n4)cc3)cc2)c[nH]1` [Compound W-173] the value was over 100 fold; for `CC1(O)CCC(C(=O)N[C@H](c2nc(-c3ccc(-c4ccc(-c5c[nH]c([C@@H](NC(=O)C6CCC(C)(O)CC6)C(C)(C)C)n5)cc4)cc3)c[nH]2)C(C)(C)C)CC1` (some centres unmarked) [Compound W-175], over 100 fold. For `CC(C)(C)[C@H](NC(=O)C1CC2(C1)OCCO2)c1nc(-c2ccc(-c3ccc(-c4c[nH]c([C@@H](NC(=O)C5CC6(C5)OCCO6)C(C)(C)C)n4)cc3)cc2)c[nH]1` (some centres unmarked) [Compound W-178] the value was over 100 fold. The figure for `CC(C)(C)[C@H](Nc1nc(Cl)c(Cl)s1)c1nc(-c2ccc(-c3ccc(-c4c[nH]c([C@@H](Nc5nc(Cl)c(Cl)s5)C(C)(C)C)n4)cc3)cc2)c[nH]1` [Compound W-179] is over 10 fold; for `CC(C)C(NC(=O)C1CC(F)CN1C(=O)OC(C)(C)C)c1nc(-c2ccc(-c3ccc(-c4c[nH]c(C(NC(=O)C5CC(F)CN5C(=O)OC(C)(C)C)C(C)C)n4)cc3)cc2)c[nH]1` (centres unmarked) [Compound W-181] it is over 100 fold.

With `C[C@H]1CCN(C(=O)C(=O)N2CCC(F)(F)CC2)C1c1nc(-c2ccc(-c3ccc(-c4c[nH]c(C5[C@@H](C)CCN5C(=O)C(=O)N5CCC(F)(F)CC5)n4)cc3)cc2)c[nH]1` (some centres unmarked) [Compound W-186], the “Fold-Synergistic 1a (Q30E)” value is over 100 fold. `C[C@H]1CCN(C(=O)C(=O)N2CCC(F)(F)CC2)C1c1nc(-c2ccc(-c3ccc(-c4c[nH]c(C5[C@@H](C)CCN5C(=O)C(=O)N5CCC(F)(F)CC5)n4)cc3)cc2)c[nH]1` (some centres unmarked) [Compound W-187]: the “Fold-Synergistic 1a (Q30E)” value was over 100 fold. The figure for `C[C@H]1CCN(C(=O)C2CCC(F)(F)CC2)C1c1nc(-c2ccc(-c3ccc(-c4c[nH]c([C@@H]5[C@@H](C)CCN5C(=O)C5CCC(F)(F)CC5)n4)cc3)cc2)c[nH]1` (some centres unmarked) [Compound W-188] is over 10 fold. The figure for `O=C(C(=O)N1CCCC1c1nc(-c2ccc(-c3ccc(-c4c[nH]c([C@@H]5CCCN5C(=O)C(=O)N5CCC(F)(F)CC5)n4)cc3)cc2)c[nH]1)N1CCC(F)(F)CC1` (some centres unmarked) [Compound W-189] is over 100 fold. Consider `CC(C)(C)[C@H](NC(=O)[C@]1(C)C[C@@H](F)CN1)c1nc(-c2ccc(-c3ccc(-c4c[nH]c([C@@H](NC(=O)[C@]5(C)C[C@@H](F)CN5)C(C)(C)C)n4)cc3)cc2)c[nH]1` [Compound W-209], for which the “Fold-Synergistic 1a (Q30E)” value is listed as over 100 fold. For the compound `COC(=O)N1C[C@H](F)C[C@@]1(C)C(=O)N[C@H](c1nc(-c2ccc(-c3ccc(-c4c[nH]c([C@@H](NC(=O)[C@]5(C)C[C@@H](F)CN5C(=O)OC)C(C)(C)C)n4)cc3)cc2)c[nH]1)C(C)(C)C` [Compound W-210], the “Fold-Synergistic 1a (Q30E)” value is listed as over 100 fold. The figure for `CC(C)(C)OC(=O)N1CCC(C)(C)[C@@H]1C(=O)N[C@H](c1nc(-c2ccc(-c3ccc(-c4c[nH]c([C@@H](NC(=O)[C@@H]5N(C(=O)OC(C)(C)C)CCC5(C)C)C(C)(C)C)n4)cc3)cc2)c[nH]1)C(C)(C)C` [Compound W-211] is over 100 fold. The figure for `CC(C)(C)OC(=O)N1CCC(C)(C)[C@H]1C(=O)N[C@H](c1nc(-c2ccc(-c3ccc(-c4c[nH]c([C@@H](NC(=O)[C@H]5N(C(=O)OC(C)(C)C)CCC5(C)C)C(C)(C)C)n4)cc3)cc2)c[nH]1)C(C)(C)C` [Compound W-214] is over 100 fold; for `CC1(C)CCN(C(=O)C2CCC(F)(F)CC2)C1c1nc(-c2ccc(-c3ccc(-c4c[nH]c(C5N(C(=O)C6CCC(F)(F)CC6)CCC5(C)C)n4)cc3)cc2)c[nH]1` (centres unmarked) [Compound W-217] it is over 10 fold. With `CC1(C)CCN(C(=O)C(=O)N2CCC(F)(F)CC2)C1c1nc(-c2ccc(-c3ccc(-c4c[nH]c(C5N(C(=O)C(=O)N6CCC(F)(F)CC6)CCC5(C)C)n4)cc3)cc2)c[nH]1` (centres unmarked) [Compound W-218], the “Fold-Synergistic 1a (Q30E)” value was over 10 fold. Take `CC(C)(C)C(=O)N1CCC(C)(C)C1c1nc(-c2ccc(-c3ccc(-c4c[nH]c(C5N(C(=O)C(C)(C)C)CCC5(C)C)n4)cc3)cc2)c[nH]1` (centres unmarked) [Compound W-219]: the “Fold-Synergistic 1a (Q30E)” value is listed as over 10 fold. Take `CC1(C)CCN(C(=O)C2(N3CCC(F)(F)CC3)COC2)C1c1nc(-c2ccc(-c3ccc(-c4c[nH]c(C5N(C(=O)C6(N7CCC(F)(F)CC7)COC6)CCC5(C)C)n4)cc3)cc2)c[nH]1` (centres unmarked) [Compound W-220]: the “Fold-Synergistic 1a (Q30E)” value is over 10 fold. For `CC1(C)CCN(C(=O)C(=O)N2CCC(F)(F)CC2)C1c1nc(-c2ccc(-c3ccc(-c4c[nH]c(C5N(C(=O)C(=O)N6CCC(F)(F)CC6)CCC5(C)C)n4)cc3)cc2)c[nH]1` (centres unmarked) [Compound W-222] the value was over 100 fold; for `CC1(C)CCN(C(=O)C(=O)c2ccccc2)C1c1nc(-c2ccc(-c3ccc(-c4c[nH]c(C5N(C(=O)C(=O)c6ccccc6)CCC5(C)C)n4)cc3)cc2)c[nH]1` (centres unmarked) [Compound W-224], over 10 fold; for `CC1(C)CCN(C(=O)c2cccc3ccccc23)C1c1nc(-c2ccc(-c3ccc(-c4c[nH]c(C5N(C(=O)c6cccc7ccccc67)CCC5(C)C)n4)cc3)cc2)c[nH]1` (centres unmarked) [Compound W-225], under 10 fold. The figure for `CN(C(=O)OC(C)(C)C)C1(C(=O)N2CCC(C)(C)C2c2nc(-c3ccc(-c4ccc(-c5c[nH]c(C6N(C(=O)C7(N(C)C(=O)OC(C)(C)C)CC7)CCC6(C)C)n5)cc4)cc3)c[nH]2)CC1` (centres unmarked) [Compound W-226] is over 10 fold; for `CC1(C)CCN(C(=O)c2ccc(-c3ccccc3)cc2)C1c1nc(-c2ccc(-c3ccc(-c4c[nH]c(C5N(C(=O)c6ccc(-c7ccccc7)cc6)CCC5(C)C)n4)cc3)cc2)c[nH]1` (centres unmarked) [Compound W-227] it is over 100 fold. Take `CC1CN(C(C)(C)C(=O)N2CCC(C)(C)C2c2nc(-c3ccc(-c4ccc(-c5c[nH]c(C6N(C(=O)C(C)(C)N7CC(C)OC(C)C7)CCC6(C)C)n5)cc4)cc3)c[nH]2)CC(C)O1` (centres unmarked) [Compound W-228]: the “Fold-Synergistic 1a (Q30E)” value is reported as under 10 fold. For `CC(C)(C)OC(=O)NC1(C(=O)N[C@H](c2nc(-c3ccc(-c4ccc(-c5c[nH]c([C@@H](NC(=O)C6(NC(=O)OC(C)(C)C)CCC(=O)CC6)C(C)(C)C)n5)cc4)cc3)c[nH]2)C(C)(C)C)CCC(=O)CC1` [Compound W-233] the value was over 100 fold; for `COC(C)(CO)C(=O)N[C@H](c1nc(-c2ccc(-c3ccc(-c4c[nH]c([C@@H](NC(=O)C(C)(CO)OC)C(C)(C)C)n4)cc3)cc2)c[nH]1)C(C)(C)C` (some centres unmarked) [Compound W-235], over 100 fold. Take `CC(C)N(CC(F)(F)F)C(=O)C(=O)N1CCC(C)(C)C1c1nc(-c2ccc(-c3ccc(-c4c[nH]c(C5N(C(=O)C(=O)N(CC(F)(F)F)C(C)C)CCC5(C)C)n4)cc3)cc2)c[nH]1` (centres unmarked) [Compound W-236]: the “Fold-Synergistic 1a (Q30E)” value was over 100 fold. The figure for `CC(C)(C)C(=O)C(=O)N[C@H](c1nc(-c2ccc(-c3ccc(-c4c[nH]c([C@@H](NC(=O)C(=O)C(C)(C)C)C(C)(C)C)n4)cc3)cc2)c[nH]1)C(C)(C)C` [Compound W-238] is over 100 fold; for `C[C@@H]1CCN(C(=O)C(=O)N(C2CC2)C2CC2)C1c1nc(-c2ccc(-c3ccc(-c4c[nH]c(C5[C@H](C)CCN5C(=O)C(=O)N(C5CC5)C5CC5)n4)cc3)cc2)c[nH]1` (some centres unmarked) [Compound W-241] it is over 10 fold; for `Cc1cc(-c2c[nH]c(C3CC[C@H](C)N3C(=O)C(=O)N3CCC(F)(F)CC3)n2)ccc1-c1ccc(-c2c[nH]c(C3CC[C@H](C)N3C(=O)C(=O)N3CCC(F)(F)CC3)n2)cc1` (some centres unmarked) [Compound W-242] it is over 100 fold. For `O=C(C(=O)N1C(c2nc(-c3ccc(-c4ccc(-c5c[nH]c(C6CC7C[C@@H]7N6C(=O)C(=O)N6CCC(F)(F)CC6)n5)cc4)cc3)c[nH]2)C[C@@H]2CC21)N1CCC(F)(F)CC1` (some centres unmarked) [Compound W-243] the value was over 100 fold; for `C[C@H]1CCN(C(=O)C(=O)N(C2CC2)C2CC2)C1c1nc(-c2ccc(-c3ccc(-c4c[nH]c(C5[C@@H](C)CCN5C(=O)C(=O)N(C5CC5)C5CC5)n4)cc3)cc2)c[nH]1` (some centres unmarked) [Compound W-244], over 100 fold.
